Toxic doses and inconclusive results are not listed. Cut-off read from the data, not from the text of the source: active = T/C of 150% or more; inactive = T/C below 125%.
System: L1210 leukemia ip in BDF1 mice, survival T/C
Assay: NCI In Vivo Anticancer Drug Screen. Data for tumor model L1210 Leukemia (intraperitoneal) in B6D2F1 (BDF1) mice
Conditions: endpoint: mean survival time, higher = longer survival
Outline: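 Tumor cells were implanted, animals were treated, and survival was followed. The result divides the treated measurement by the vehicle-control measurement.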

[1] = dose: 100.0 mg/kg/injection, schedule: Q01DX009 (ip), vehicle: saline with Tween-80
[2] = dose: 200.0 mg/kg/injection, schedule: Q01DX009 (ip), vehicle: saline with Tween-80
[3] = dose: 400.0 mg/kg/injection, schedule: Q01DX009 (ip), vehicle: saline with Tween-80
[4] = dose: 100.0 mg/kg/injection, schedule: Q04DX003 (ip), vehicle: saline with Tween-80
[5] = dose: 200.0 mg/kg/injection, schedule: Q04DX003 (ip), vehicle: saline with Tween-80
[6] = dose: 400.0 mg/kg/injection, schedule: Q04DX003 (ip), vehicle: saline with Tween-80
[7] = dose: 100.0 mg/kg/injection, schedule: Q04DX002 (ip), vehicle: saline
[8] = dose: 200.0 mg/kg/injection, schedule: Q04DX002 (ip), vehicle: saline
[9] = dose: 100.0 mg/kg/injection, schedule: Q04DX003 (ip), vehicle: Klucel (hydroxypropylcellulose) (HPC)
[10] = dose: 200.0 mg/kg/injection, schedule: Q04DX003 (ip), vehicle: Klucel (hydroxypropylcellulose) (HPC)
[11] = dose: 400.0 mg/kg/injection, schedule: Q04DX003 (ip), vehicle: Klucel (hydroxypropylcellulose) (HPC)
[12] = dose: 100.0 mg/kg/injection, schedule: Q01DX001 (ip), vehicle: Klucel (hydroxypropylcellulose) (HPC)
[13] = dose: 100.0 mg/kg/injection, schedule: Q04DX002 (ip), vehicle: Klucel (hydroxypropylcellulose) (HPC)
[14] = dose: 200.0 mg/kg/injection, schedule: Q01DX001 (ip), vehicle: Klucel (hydroxypropylcellulose) (HPC)
[15] = dose: 400.0 mg/kg/injection, schedule: Q01DX001 (ip), vehicle: Klucel (hydroxypropylcellulose) (HPC)
[16] = dose: 100.0 mg/kg/injection, schedule: Q04DX003 (ip), vehicle: water
[17] = dose: 200.0 mg/kg/injection, schedule: Q04DX003 (ip), vehicle: water
[18] = dose: 400.0 mg/kg/injection, schedule: Q04DX003 (ip), vehicle: water

Measured: T/C

Cc1cc2cc3ccc(Cl)nn3c2n[n+]1[O-]
inactive: dose: 62.5 mg/kg/injection, schedule: Q04DX002 (ip), vehicle: Klucel (hydroxypropylcellulose) (HPC) 100 % of control | dose: 125.0 mg/kg/injection, schedule: Q04DX002 (ip), vehicle: Klucel (hydroxypropylcellulose) (HPC) 122 % of control

O=C(O)c1c(Cl)c(-c2c(Cl)c(C(=O)O)c(Cl)c([N+](=O)[O-])c2Cl)c(Cl)c([N+](=O)[O-])c1Cl
inactive: [1] 96 % of control | [2] 96 % of control | [3] 93 % of control

O=C(/C=C/c1ccccc1)c1cccc(Br)c1
inactive: [1] 106 % of control | [4] 97 % of control | [2] 91 % of control | [5] 96 % of control | [3] 96 % of control | [6] 96 % of control

CC(=O)OC(OC(C)=O)c1ccc([N+](=O)[O-])c([N+](=O)[O-])c1
inactive: dose: 12.5 mg/kg/injection, schedule: Q01DX001 (ip), vehicle: carboxymethylcellulose (CMC) 97 % of control | dose: 25.0 mg/kg/injection, schedule: Q01DX001 (ip), vehicle: carboxymethylcellulose (CMC) 97 % of control | dose: 50.0 mg/kg/injection, schedule: Q01DX001 (ip), vehicle: carboxymethylcellulose (CMC) 94 % of control

O=[N+]([O-])c1cc(Cl)ccc1N1CCCCC1
inactive: [1] 97 % of control | [2] 98 % of control | [3] 106 % of control

OCC(O)C(O)C(O)C(O)CNC(CO)(CO)CO (configuration not stated)
inactive: [7] 104 % of control | [8] 88 % of control | dose: 400.0 mg/kg/injection, schedule: Q04DX002 (ip), vehicle: saline 95 % of control

CCCC(O)(CCC)CC(=O)OCC
inactive: dose: 200.0 mg/kg/injection, schedule: Q04DX003 (ip), vehicle: saline sonified 106 % of control | dose: 400.0 mg/kg/injection, schedule: Q04DX003 (ip), vehicle: saline sonified 90 % of control

CC(C)(C)OB(OC(C)(C)C)OC(C)(C)C
inactive: dose: 25.0 mg/kg/injection, schedule: Q01DX009 (ip), vehicle: other 105 % of control | dose: 50.0 mg/kg/injection, schedule: Q01DX009 (ip), vehicle: other 98 % of control | dose: 100.0 mg/kg/injection, schedule: Q01DX009 (ip), vehicle: other 109 % of control | dose: 100.0 mg/kg/injection, schedule: Q04DX003 (ip), vehicle: saline 98 % of control | dose: 200.0 mg/kg/injection, schedule: Q01DX009 (ip), vehicle: other 104 % of control | dose: 200.0 mg/kg/injection, schedule: Q04DX003 (ip), vehicle: saline 102 % of control | dose: 400.0 mg/kg/injection, schedule: Q04DX003 (ip), vehicle: saline 109 % of control

CC([NH-])C(=O)[O-].[K+].[O]=[Co][O-] (configuration not stated)
inactive: dose: 75.0 mg/kg/injection, schedule: Q01DX001 (ip), vehicle: saline 107 % of control

C/C=C/C=N/Nc1ccccc1
inactive: dose: 50.0 mg/kg/injection, schedule: Q04DX003 (ip), vehicle: other 87 % of control | dose: 100.0 mg/kg/injection, schedule: Q01DX001 (ip), vehicle: other 97 % of control | dose: 100.0 mg/kg/injection, schedule: Q04DX003 (ip), vehicle: other 92 % of control | dose: 200.0 mg/kg/injection, schedule: Q01DX001 (ip), vehicle: other 90 % of control | dose: 200.0 mg/kg/injection, schedule: Q04DX003 (ip), vehicle: other 93 % of control

CCN(CC)CC[n+]1ccccc1
inactive: [7] 93 % of control | [8] 100 % of control

COc1c(C)c(Br)c(OC)c2ccccc12
inactive: [1] 89 % of control | [2] 94 % of control | [3] 94 % of control

c1ccc2c(c1)ccc1ncccc12
inactive: [9] 103 % of control | [10] 102 % of control | [11] 101 % of control

Cc1ccc(NC(=O)c2ccco2)cc1Cl
inactive: [12] 93 % of control | [13] 102 % of control | [14] 89 % of control | dose: 200.0 mg/kg/injection, schedule: Q04DX002 (ip), vehicle: Klucel (hydroxypropylcellulose) (HPC) 118 % of control | [15] 105 % of control | dose: 400.0 mg/kg/injection, schedule: Q04DX002 (ip), vehicle: Klucel (hydroxypropylcellulose) (HPC) 123 % of control

O=C1NC2(CCc3ccccc32)C(=O)O1 (configuration not stated)
inactive: [9] 110 % of control | [10] 100 % of control | [11] 98 % of control

C#CC(O)c1ccccc1 (configuration not stated)
inactive: dose: 12.5 mg/kg/injection, schedule: Q04DX003 (ip), vehicle: Klucel (hydroxypropylcellulose) (HPC) 94 % of control | dose: 25.0 mg/kg/injection, schedule: Q04DX003 (ip), vehicle: Klucel (hydroxypropylcellulose) (HPC) 99 % of control | dose: 50.0 mg/kg/injection, schedule: Q04DX003 (ip), vehicle: Klucel (hydroxypropylcellulose) (HPC) 101 % of control

O=C(NCCCl)NC1(C(=O)O)CCCC1
inactive: [12] 98 % of control | [14] 107 % of control | [15] 98 % of control

Nc1cc2[nH]cnc2c(Br)n1
inactive: [16] 116 % of control | [17] 116 % of control | [18] 102 % of control

O=C(O)c1ccc(Nc2ccccc2)cc1
inactive: [4] 103 % of control | [5] 90 % of control | [6] 90 % of control

C=CCN1C(=O)C2C3C=CC(C3)C2C1=O (configuration not stated)
inactive: dose: 6.0 mg/kg/injection, schedule: Q04DX002 (ip), vehicle: Klucel (hydroxypropylcellulose) (HPC) 114 % of control | dose: 25.0 mg/kg/injection, schedule: Q04DX002 (ip), vehicle: Klucel (hydroxypropylcellulose) (HPC) 114 % of control | dose: 50.0 mg/kg/injection, schedule: Q04DX002 (ip), vehicle: Klucel (hydroxypropylcellulose) (HPC) 117 % of control | [13] 97 % of control

NC1CC2C=CCC(C1)C2 (configuration not stated)
inactive: dose: 100.0 mg/kg/injection, schedule: Q01DX001 (ip), vehicle: saline 95 % of control | dose: 200.0 mg/kg/injection, schedule: Q01DX001 (ip), vehicle: saline 94 % of control

C=CCc1cc2c(C)cc(=O)oc2c(C)c1OC(C)=O
inactive: dose: 100.0 mg/kg/injection, schedule: Q01DX009 (ip), vehicle: gum acacia 100 % of control | dose: 100.0 mg/kg/injection, schedule: Q04DX003 (ip), vehicle: gum acacia 98 % of control | dose: 200.0 mg/kg/injection, schedule: Q01DX009 (ip), vehicle: gum acacia 96 % of control | dose: 200.0 mg/kg/injection, schedule: Q04DX003 (ip), vehicle: gum acacia 103 % of control | dose: 400.0 mg/kg/injection, schedule: Q01DX009 (ip), vehicle: gum acacia 91 % of control | dose: 400.0 mg/kg/injection, schedule: Q04DX003 (ip), vehicle: gum acacia 90 % of control

O=c1cc(N=Nc2ccc(O)cc2)[nH]c(=O)[nH]1
inactive: dose: 100.0 mg/kg/injection, schedule: Q01DX009 (ip), vehicle: water 94 % of control | [16] 103 % of control | dose: 200.0 mg/kg/injection, schedule: Q01DX009 (ip), vehicle: water 94 % of control | [17] 103 % of control | dose: 400.0 mg/kg/injection, schedule: Q01DX009 (ip), vehicle: water 92 % of control | [18] 104 % of control

O=C(O)c1ccc2c(c1)Sc1ccccc1N2
inactive: [9] 95 % of control | [10] 95 % of control

Cc1cc(OC(=O)Nc2cccc(Cl)c2C)ccc1Cl
inactive: [1] 99 % of control | [4] 93 % of control | [2] 99 % of control | [5] 91 % of control | [3] 89 % of control | [6] 98 % of control

CCOC(=O)N1CCc2nc3ccc(Cl)cc3cc21
inactive: dose: 100.0 mg/kg/injection, schedule: Q01DX001 (ip), vehicle: saline with Tween-80 95 % of control | [1] 104 % of control | dose: 200.0 mg/kg/injection, schedule: Q01DX001 (ip), vehicle: saline with Tween-80 93 % of control | [2] 110 % of control | dose: 400.0 mg/kg/injection, schedule: Q01DX001 (ip), vehicle: saline with Tween-80 98 % of control | [3] 106 % of control

C=CCc1ccc(OC(=O)Nc2ccc(S(=O)(=O)N3CCCCC3)cc2)c(OC)c1
inactive: dose: 12.5 mg/kg/injection, schedule: Q01DX001 (ip), vehicle: other 98 % of control | dose: 25.0 mg/kg/injection, schedule: Q01DX001 (ip), vehicle: other 90 % of control | dose: 50.0 mg/kg/injection, schedule: Q01DX001 (ip), vehicle: other 90 % of control

CCC(S)C(=O)Nc1ccccc1 (configuration not stated)
inactive: [4] 107 % of control | [5] 90 % of control | [6] 91 % of control
